Reference: patent publication US9518018B2, “3-alkoxy, thioalkyl and amino-4-amino-6-(substituted)picolinates and their use as herbicides” (Dow AgroSciences LLC, priority 2011, dated 2016)

Tested on: desired test plant species
Experiment: Foliar-applied postemergence herbicidal activity in direct seeded rice (Table 6)
Type: in vivo
Conditions: 21 DAA
From the text: Seeds or nutlets of the desired test plant species were planted in a soil matrix prepared by mixing a loam soil (43 percent silt, 19 percent clay, and 38 percent sand, with a pH of about 8.1 and an organic matter content of about 1.5 percent) and river sand in an 80 to 20 ratio. The soil matrix was contained in plastic pots with a surface area of 139.7 cm^2. When required to ensure good germination and healthy plants, a fungicide treatment and/or other chemical or physical treatment was applied. The plants were grown for 10-17 d in a greenhouse with an approximate 14-h photoperiod which was maintained at about 29° C. during the day and 26° C. during the night. Nutrients and water were added on a regular basis and supplemental lighting was provided with overhead metal halide 1000-Watt lamps as necessary. The plants were employed for testing when they reached the second or third true leaf stage. Treatments consisted of compounds 45, 34, and 66. Weighed amounts of technical compounds were placed in individual 25 mL glass vials and dissolved in 8 mL of 97:3 v/v acetone-DMSO to obtain stock solutions. […] The spray application solutions were prepared by removing 4 mL of the stock solution and diluting with 4 mL of 97:3 v/v acetone-DMSO and continued serial dilution to obtain 1⁄2×, 1⁄4×, 1⁄8×, and 1/16× rates of the high rate. Spray solutions were diluted to the appropriate final concentrations with the addition of 8 mL of an aqueous mixture of 1.875% (v/v) Agri-dex crop oil concentrate. The final 12-mL spray solutions each contained 1.25% (v/v) Agri-dex crop oil concentrate, 32.3% acetone, and 1.0% DMSO. Compound requirements are based upon a 12 mL application volume at a rate of 187 L/ha. Spray solutions were applied to the plant material with an overhead Mandel track sprayer equipped with […] nozzles calibrated to deliver 187 L/ha over an application area of 0.503 square meters (m^2) at a spray height of 18 inches ([…]) above average plant canopy height. Control plants were sprayed in the same manner with the solvent blank. The treated plants and control plants were placed in a greenhouse as described above and watered by sub-irrigation to prevent wash-off of the test compounds. After approximately 3 weeks, the condition of the test plants, compared with that of the untreated plants, was determined visually and scored on a scale of 0 to 100 percent where 0 corresponds to no injury and 100 corresponds to complete kill. By applying the well-accepted probit analysis as described by J. Berkson in Journal of the […], 48, 565 (1953) and by D. Finney in “Probit Analysis” Cambridge University Press (1952) or by plotting the mean data and fitting a logarithmic curve to the portion of the data where there was a dose response using Microsoft Excel®, the above data can be used to calculate GR50 and GR90 values, which are defined as growth reduction factors that correspond to the effective dose of herbicide required to kill or control 50 percent or 90 percent, respectively, of a target plant.

COc1c(C(=O)OCc2ccccc2)nc(-c2ccc(Cl)c(OC)c2F)c(F)c1N [Compound 66, benzyl 4-amino-6-(4-chloro-2-fluoro-3-methoxyphenyl)-5-fluoro-3-methoxypicolinate]
Mean Visual Injury (%)-21 Days After Application ECHCO (ECHCO (Echinochloa colonum, junglerice), 4.38 g ae/ha): 80% | Mean Visual Injury (%)-21 Days After Application ECHCO (ECHCO (Echinochloa colonum, junglerice), 8.75 g ae/ha): 89% | Mean Visual Injury (%)-21 Days After Application ECHCO (ECHCO (Echinochloa colonum, junglerice), 17.5 g ae/ha): 93% | Mean Visual Injury (%)-21 Days After Application ECHCO (ECHCO (Echinochloa colonum, junglerice), 35 g ae/ha): 94% | Mean Visual Injury (%)-21 Days After Application ECHCO (ECHCO (Echinochloa colonum, junglerice), 70 g ae/ha): 94% | GR50 ECHCO (ECHCO (Echinochloa colonum, junglerice), dose to kill or control 50 percent): <2.19 g ae/ha | GR90 ECHCO (ECHCO (Echinochloa colonum, junglerice), dose to kill or control 90 percent): 11.6 g ae/ha | Mean Visual Injury (%)-21 Days After Application LEFCH (LEFCH (Leptochloa chinensis, Chinese sprangletop), 2.19 g ae/ha): 0% | Mean Visual Injury (%)-21 Days After Application LEFCH (LEFCH (Leptochloa chinensis, Chinese sprangletop), 4.38 g ae/ha): 7% | Mean Visual Injury (%)-21 Days After Application LEFCH (LEFCH (Leptochloa chinensis, Chinese sprangletop), 8.75 g ae/ha): 15% | Mean Visual Injury (%)-21 Days After Application LEFCH (LEFCH (Leptochloa chinensis, Chinese sprangletop), 17.5 g ae/ha): 32% | Mean Visual Injury (%)-21 Days After Application LEFCH (LEFCH (Leptochloa chinensis, Chinese sprangletop), 35 g ae/ha): 26% | Mean Visual Injury (%)-21 Days After Application LEFCH (LEFCH (Leptochloa chinensis, Chinese sprangletop), 70 g ae/ha): 40% | GR50 LEFCH (LEFCH (Leptochloa chinensis, Chinese sprangletop), dose to kill or control 50 percent): >70 g ae/ha | GR90 LEFCH (LEFCH (Leptochloa chinensis, Chinese sprangletop), dose to kill or control 90 percent): >70 g ae/ha | Mean Visual Injury (%)-21 Days After Application ORYSA ‘Clearfield 171’ (ORYSA (Oryza sativa ‘Clearfield 171’, rice), 2.19 g ae/ha): 0% | Mean Visual Injury (%)-21 Days After Application ORYSA ‘Clearfield 171’ (ORYSA (Oryza sativa ‘Clearfield 171’, rice), 4.38 g ae/ha): 0% | Mean Visual Injury (%)-21 Days After Application ORYSA ‘Clearfield 171’ (ORYSA (Oryza sativa ‘Clearfield 171’, rice), 8.75 g ae/ha): 1% | Mean Visual Injury (%)-21 Days After Application ORYSA ‘Clearfield 171’ (ORYSA (Oryza sativa ‘Clearfield 171’, rice), 17.5 g ae/ha): 2% | Mean Visual Injury (%)-21 Days After Application ORYSA ‘Clearfield 171’ (ORYSA (Oryza sativa ‘Clearfield 171’, rice), 35 g ae/ha): 6% | Mean Visual Injury (%)-21 Days After Application ORYSA ‘Clearfield 171’ (ORYSA (Oryza sativa ‘Clearfield 171’, rice), 70 g ae/ha): 8% | GR50 ORYSA ‘Clearfield 171’ (ORYSA (Oryza sativa ‘Clearfield 171’, rice), dose to kill or control 50 percent): >70 g ae/ha | GR90 ORYSA ‘Clearfield 171’ (ORYSA (Oryza sativa ‘Clearfield 171’, rice), dose to kill or control 90 percent): >70 g ae/ha | Mean Visual Injury (%)-21 Days After Application ORYSA ‘Wells’ (ORYSA (Oryza sativa ‘Wells’, rice), 2.19 g ae/ha): 0% | Mean Visual Injury (%)-21 Days After Application ORYSA ‘Wells’ (ORYSA (Oryza sativa ‘Wells’, rice), 4.38 g ae/ha): 0% | Mean Visual Injury (%)-21 Days After Application ORYSA ‘Wells’ (ORYSA (Oryza sativa ‘Wells’, rice), 8.75 g ae/ha): 0% | Mean Visual Injury (%)-21 Days After Application ORYSA ‘Wells’ (ORYSA (Oryza sativa ‘Wells’, rice), 17.5 g ae/ha): 2% | Mean Visual Injury (%)-21 Days After Application ORYSA ‘Wells’ (ORYSA (Oryza sativa ‘Wells’, rice), 35 g ae/ha): 0% | Mean Visual Injury (%)-21 Days After Application ORYSA ‘Wells’ (ORYSA (Oryza sativa ‘Wells’, rice), 70 g ae/ha): 0% | GR50 ORYSA ‘Wells’ (ORYSA (Oryza sativa ‘Wells’, rice), dose to kill or control 50 percent): >70 g ae/ha | GR90 ORYSA ‘Wells’ (ORYSA (Oryza sativa ‘Wells’, rice), dose to kill or control 90 percent): >70 g ae/ha | Mean Visual Injury (%)-21 Days After Application SCPJU (SCPJU (Scirpus juncoides, Japanese bulrush), 2.19 g ae/ha): 100% | Mean Visual Injury (%)-21 Days After Application SCPJU (SCPJU (Scirpus juncoides, Japanese bulrush), 4.38 g ae/ha): 88% | Mean Visual Injury (%)-21 Days After Application SCPJU (SCPJU (Scirpus juncoides, Japanese bulrush), 8.75 g ae/ha): 100% | Mean Visual Injury (%)-21 Days After Application SCPJU (SCPJU (Scirpus juncoides, Japanese bulrush), 17.5 g ae/ha): 100% | Mean Visual Injury (%)-21 Days After Application SCPJU (SCPJU (Scirpus juncoides, Japanese bulrush), 35 g ae/ha): 100% | Mean Visual Injury (%)-21 Days After Application SCPJU (SCPJU (Scirpus juncoides, Japanese bulrush), 70 g ae/ha): 100% | GR50 SCPJU (SCPJU (Scirpus juncoides, Japanese bulrush), dose to kill or control 50 percent): <42.19 g ae/ha | GR90 SCPJU (SCPJU (Scirpus juncoides, Japanese bulrush), dose to kill or control 90 percent): 4.9 g ae/ha | Mean Visual Injury (%)-21 Days After Application SEBEX (SEBEX (Sesbania exaltata, hemp sesbania), 2.19 g ae/ha): 53% | Mean Visual Injury (%)-21 Days After Application SEBEX (SEBEX (Sesbania exaltata, hemp sesbania), 4.38 g ae/ha): 90% | Mean Visual Injury (%)-21 Days After Application SEBEX (SEBEX (Sesbania exaltata, hemp sesbania), 8.75 g ae/ha): 99% | Mean Visual Injury (%)-21 Days After Application SEBEX (SEBEX (Sesbania exaltata, hemp sesbania), 17.5 g ae/ha): 99% | Mean Visual Injury (%)-21 Days After Application SEBEX (SEBEX (Sesbania exaltata, hemp sesbania), 35 g ae/ha): 100% | Mean Visual Injury (%)-21 Days After Application SEBEX (SEBEX (Sesbania exaltata, hemp sesbania), 70 g ae/ha): 100% | GR50 SEBEX (SEBEX (Sesbania exaltata, hemp sesbania), dose to kill or control 50 percent): <2.19 g ae/ha | GR90 SEBEX (SEBEX (Sesbania exaltata, hemp sesbania), dose to kill or control 90 percent): 5.8 g ae/ha
